Test results reported in patent US20090130064A1, “DIFFERENTIATION OF STEM CELLS AND STABILIZATION OF PHENOTYPICAL PROPERTIES OF PRIMARY CELLS” (priority 2004, published 2009).

What was measured:
[1] = test system: freshly isolated rat hepatocytes; assay: Biotransformation in suspensions of freshly isolated rat hepatocytes; assay type: in vitro ADME
Description: Male outbred Sprague Dawley rats (Iffa Credo, Brussels, Belgium) weighing 200-300 g were used. The animals were kept under controlled environmental conditions (12 h light-dark cycle) and had free access to food (Animalabo A 04) and water. After intraperitoneal injection of Nembutal® (0.1 ml/kg body weight), hepatocytes were isolated as described by De Smet et al.. Cell integrity was evaluated by trypan blue exclusion, and was 88±3% (n=20). 5, 25 and 50 μM of both compounds were incubated with 2×10^6 hepatocytes/ml (final volume 3 ml) in HEPES buffer (pH 7.65, 37° C.) up to 6 h. Control samples were obtained by boiling the hepatocyte suspension for 2 min prior to the addition of substrate; cell-free controls contained the substrate in the incubation buffer without hepatocytes. At selected time intervals, 1.0 ml aliquots were submersed in liquid nitrogen to stop the biotransformation reaction.
After centrifugation (2000 g, 45 min, 4° C.) of the diluted microsomal samples, the clear supernatant was injected onto a HPLC column. Samples from incubations with hepatocytes were thawed on ice and centrifugated (120 g, 2 min). The supernatants (extracellular) were subjected to solid phase extraction (Waters Oasis™ HLB cartridges, Waters Corporation, Milford, Mass., USA), while cell pellets (intracellular) were ultrasonicated in 1 ml methanol and centrifugated (2000 g, 30 min, 4° C.). Separations ([…]) were performed by reversed-phase HPLC (Kontron chromatographic system, Milan, Italy) on a Discovery C18, 5 μm, 250×4.6 mm column (Supelco, Sigma-Aldrich, Bornem, Belgium). The mobile phase consisted of component A (0.1% (v/v) aqueous trifluoroacetic acid) and component B (0.1% (v/v) trifluoroacetic acid in acetonitrile). A linear gradient from 3 to 80% (v/v) B was used over 30 min at a flow rate of 1.0 ml/min. […]

rat hepatocytes = assay: LDH index (membrane damage) in rat hepatocyte suspensions; assay type: cell-based; settings: concentrations up to 100 μM; 6 h
primary rat hepatocytes = assay: Albumin secretion (ELISA) by primary rat hepatocyte cultures; assay type: cell-based
Description: Medium samples were collected at 72 hours of culture and analyzed for their albumin content by an enzyme-linked immunosorbent assay (ELISA) as described (Dunn et al. Biotechnol Prog 7: 237-245, 1991) Cell morphology was analyzed by light microscopy (×100). Pictures were taken using an Optiphot Nikon Phase Contrast microscope (Cetec, Brussels, Belgium).
Medium samples were collected at 72 hours of culture and analyzed for their albumin content by an enzyme-linked immunosorbent assay (ELISA) as described (Dunn et al. Biotechnol Prog 7: 237-245, 1991).

p21 = assay: Western blotting of p21 in primary rat hepatocytes; assay type: cell-based
Excerpt: Male outbred Sprague-Dawley rats (200-300 g, Iffa Credo, Brussels, Belgium) were kept under controlled environmental conditions (12-hr light-dark cycle) and fed a standard diet (Animafabo A04, water ad libitum). Hepatocytes were isolated by a two-step collagenase perfusion as described (De Smet et al. In ‘Methods in Molecular Biology, Vol. 107: Cytochrome P450 Protocols’, Philips I R and Shephard E A, eds., pp 295-301, Humana Press, Totowa, 1998). Cell liability was >90% as determined by trypan blue exclusion. Cells (0.4×10^5 cells/cm^2) were plated in MEM/M199 (3:1), containing BSA (1 mg/ml), bovine insulin (10 μg/ml), L-glutamine (2 mM), FBS (10% v/v) and antibiotics (7.3 IU/ml benzyl penicillin, 50 μg/ml streptomycin sulphate, 50 μg/ml kanamycin monosulphstep and 10 μg/ml sodium ampicillin). Four hours after plating, serum-containing medium was removed and fresh serum-free medium was added to the cultures. Culture medium was refreshed daily. […]
Total cell extracts were prepared as described previously (Papeleu et al. J Hepatol 39: 374-382, 2003) and proteins (25 or 50 μg per lane) were separated electrophoretically by SDS-PAGE and electroblotted onto nitrocellulose membranes (Amersham Pharmacia Biotech, Buckinghamshire, UK). […] Proteins were detected using the ECL detection system (Amersham Pharmacia Biotech, Buckinghamshire, UK) according to the manufacturer's recommendations.

CYP 2B1/2 = CYP 2B1/2 activity (penthoxyresorufin conversion) in cultured rat hepatocytes; assay type: cell-based
Excerpt: Hepatocytes were isolated from male Sprague-Dawley rats by a two-step collagenase perfusion as described (De Smet et al. In ‘Methods in Molecular Biology, Vol. 107: Cytochrome P450 Protocols’, Philips IR and Shephard E A, eds., p.p 295-301, Humana Press, Totowa, 1998). Hepatocytes were cultivated in monolayer cultures with Willam's E Medium (WE) for 7 days. […] The maintenance of differentiation characteristics was studied after 2, 4, and 7 days (D2, D4, D7) of culture.
Phase I biotransformation was assessed by means of activity measurements of the microsomal cytochrome P450 (CYP) 1A1 and 2B1/2 iso-enzymes, using standard techniques known in the art (i.e., measuring conversion of ethoxyresorufin into hydroxyresorufin for CYP 1A1 and conversion of penthoxyresorufin to hydroxyresorufin for CYP 2B1/2) (Burke et al. Drug Metab Dispos 2:583-588, 1974). Microsomes were prepared from freshly isolated and hepatocytes cultured for 7 days according to Hales et al. (Biochem Pharmacol 26:555-556, 1977).

Row | time to full degradation ([1]; 50 μM, 2×10^6 hepatocytes/ml) | half-life in comparison to TSA ([1]; rat hepatocyte suspensions) | Compound | cell viability (LDH leakage) of hepatocytes in suspension (rat hepatocytes) | secretion of albumin into the culture medium compared with 1 μM TSA (primary rat hepatocytes; 50 μM 4-Me2N-BAVAH from day 0) | increase in albumin secretion (primary rat hepatocytes; 50 μM, 72 hours, versus untreated EGF-stimulated hepatocytes) | p21 expression (p21; 50 μM 4-Me2N-BAVAH + EGF) | time to complete metabolism / full degradation ([1]; 50 μM, 2×10^6 hepatocytes/ml) | activity of CYP 2B1/2 versus EtOH-treated controls (CYP 2B1/2; 1 μM TSA starting at 0 h or 4 h, day 4 and 7) | CYP 2B1 Activity (CYP 2B1/2; 7-day conventionally cultured adult rat hepatocytes, 1 μm TSA) | secretion of albumin versus cells isolated in absence of TSA (primary rat hepatocytes; 1 μM TSA in the collagenase perfusion solution) | p21 accumulation (p21; 1 μM TSA during liver perfusion and culture, 72 hours)
1 | more than 3 h | longer half-life | CN(C)c1ccc(C(=O)NCCCCC(=O)NO)cc1 [4-Me2N-BAVAH, 5-(4-dimethylaminobenzoyl)-aminovaleric acid hydroxamide] | not toxic | significantly higher secretion of albumin | 2.44±0.29 fold | completely inhibited | – | – | – | – | –
2 | – | – | CC(C=CC(=O)NO)=CC(C)C(=O)c1ccc(N(C)C)cc1 (stereo not drawn) [TSA] | did not affect cell viability | – | – | – | ≤ 40 min | significantly higher | 4.1 ± 0.7 pmol resorufin/minute mg microsomal protein | significantly higher secretion of albumin | complete absence of p21 accumulation
